Measurements: ChEMBL document CHEMBL1909046, “DrugMatrix in vitro pharmacology data”

How the values were obtained:
[1] = biological target: T1, Alpha-1A adrenergic receptor (Rattus norvegicus, UniProt P43140); test: DRUGMATRIX: Alpha-1A adrenergic receptor radioligand binding (ligand: prazosin); assay type: cell membranes, Wistar, Submaxillary gland, Membrane; conditions: Not Active = under 50% inhibition at 10 µM
T1 sequence (P43140 whole entry): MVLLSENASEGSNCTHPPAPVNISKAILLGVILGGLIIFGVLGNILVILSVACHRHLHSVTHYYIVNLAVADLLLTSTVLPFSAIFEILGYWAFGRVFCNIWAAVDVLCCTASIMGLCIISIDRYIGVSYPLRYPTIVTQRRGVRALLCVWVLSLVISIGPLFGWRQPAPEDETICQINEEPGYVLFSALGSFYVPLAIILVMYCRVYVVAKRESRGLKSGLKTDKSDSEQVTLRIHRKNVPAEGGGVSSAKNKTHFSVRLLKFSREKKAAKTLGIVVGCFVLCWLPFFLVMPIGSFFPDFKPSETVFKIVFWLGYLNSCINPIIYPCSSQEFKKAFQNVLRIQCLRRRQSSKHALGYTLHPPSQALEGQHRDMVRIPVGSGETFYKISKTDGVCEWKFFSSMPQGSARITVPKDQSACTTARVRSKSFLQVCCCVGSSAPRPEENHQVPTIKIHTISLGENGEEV

[2] = biological target: T2, Alpha-1D adrenergic receptor (Homo sapiens, UniProt P25100); assay type: cell membranes, HEK293, Membrane; conditions: hek293; note: in other assays of this panel Not Active means under 50% inhibition at 10 µM
T2 sequence (P25100 whole entry): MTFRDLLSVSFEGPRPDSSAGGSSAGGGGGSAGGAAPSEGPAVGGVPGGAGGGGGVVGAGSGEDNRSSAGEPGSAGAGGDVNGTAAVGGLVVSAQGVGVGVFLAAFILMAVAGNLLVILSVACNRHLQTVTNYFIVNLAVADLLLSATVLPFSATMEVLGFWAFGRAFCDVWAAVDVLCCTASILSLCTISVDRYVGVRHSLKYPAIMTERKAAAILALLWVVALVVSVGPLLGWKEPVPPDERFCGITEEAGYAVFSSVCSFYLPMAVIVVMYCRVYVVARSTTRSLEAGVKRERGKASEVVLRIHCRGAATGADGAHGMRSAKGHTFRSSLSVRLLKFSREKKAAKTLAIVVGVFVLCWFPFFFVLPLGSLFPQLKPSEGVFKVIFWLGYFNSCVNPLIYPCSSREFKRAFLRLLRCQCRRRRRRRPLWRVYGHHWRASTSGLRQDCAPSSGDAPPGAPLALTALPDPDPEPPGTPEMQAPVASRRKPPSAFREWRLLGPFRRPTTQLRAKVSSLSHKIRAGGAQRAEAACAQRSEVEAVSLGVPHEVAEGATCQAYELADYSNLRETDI

[3] = biological target: Beta-1 adrenergic receptor (Homo sapiens, UniProt P08588); test: DRUGMATRIX: Adrenergic beta1 radioligand binding (ligand: [125I] Cyanopindolol); assay type: cell membranes, CHO-K1, Membrane; conditions: cho-k1; Not Active = under 50% inhibition at 10 µM
[4] = biological target: Beta-3 adrenergic receptor (Homo sapiens, UniProt P13945); test: DRUGMATRIX: Adrenergic beta3 radioligand binding (ligand: [125I] Cyanopindolol); assay type: cell membranes, HEK293, Membrane; conditions: hek293; Not Active = under 50% inhibition at 10 µM
[5] = biological target: 5-hydroxytryptamine receptor 2B (Homo sapiens, UniProt P41595); assay type: cell membranes, CHO-K1, Membrane; note: in other assays of this panel Not Active means under 50% inhibition at 10 µM
[6] = DRUGMATRIX: Serotonin (5-Hydroxytryptamine) 5-HT3 radioligand binding (ligand: [3H] GR-65630); assay type: cell membranes, Membrane; conditions: hek293; Not Active = under 50% inhibition at 10 µM
Thromboxane-A synthase = biological target: T3, Thromboxane-A synthase (Homo sapiens, UniProt P24557); test: biochemical; assay type: tissue-based, Platelet; conditions: platelet;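 note: enzyme inhibition assay with PGH2 supplied as substrate; in other assays of this panel Not Active means under 50% inhibition at 10 µM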
T3 sequence (P24557 whole entry): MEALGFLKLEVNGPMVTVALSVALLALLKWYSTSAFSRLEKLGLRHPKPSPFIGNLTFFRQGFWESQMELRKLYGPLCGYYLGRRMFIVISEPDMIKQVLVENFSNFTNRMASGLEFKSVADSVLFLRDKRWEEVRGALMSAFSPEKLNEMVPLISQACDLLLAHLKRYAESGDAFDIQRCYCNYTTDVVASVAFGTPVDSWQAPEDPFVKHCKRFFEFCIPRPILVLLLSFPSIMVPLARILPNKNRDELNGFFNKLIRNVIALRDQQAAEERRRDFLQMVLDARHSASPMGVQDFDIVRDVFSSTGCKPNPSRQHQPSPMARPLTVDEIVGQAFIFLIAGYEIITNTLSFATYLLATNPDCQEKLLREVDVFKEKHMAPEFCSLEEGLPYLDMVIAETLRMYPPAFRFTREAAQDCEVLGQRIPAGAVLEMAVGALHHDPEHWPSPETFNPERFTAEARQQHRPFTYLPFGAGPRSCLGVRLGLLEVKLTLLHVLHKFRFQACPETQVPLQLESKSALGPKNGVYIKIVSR

[7] = biological target: C-C chemokine receptor type 2 (Homo sapiens, UniProt P41597); assay type: cell membranes, CHO-K1, Membrane; conditions: cho-k1; note: in other assays of this panel Not Active means under 50% inhibition at 10 µM
[8] = biological target: Prostaglandin G/H synthase 1 (Homo sapiens, UniProt P23219); test: biochemical; assay type: tissue-based, Platelet; conditions: platelet
D(3) dopamine receptor = D(3) dopamine receptor (Homo sapiens, UniProt P35462); test: DRUGMATRIX: Dopamine D3 radioligand binding (ligand: [3H] Spiperone); assay type: cell membranes, CHO, Membrane; conditions: cho
Melanocortin receptor 3 = Melanocortin receptor 3 (Homo sapiens, UniProt P41968); assay type: cell membranes, Membrane; conditions: hek293; note: in other assays of this panel Not Active means under 50% inhibition at 10 µM
[9] = biological target: T4, 5-hydroxytryptamine receptor 1A (Rattus norvegicus, UniProt P19327); assay type: cell membranes, CHO-K1, Membrane; conditions: cho-k1; note: in other assays of this panel Not Active means under 50% inhibition at 10 µM
T4 sequence (P19327 whole entry): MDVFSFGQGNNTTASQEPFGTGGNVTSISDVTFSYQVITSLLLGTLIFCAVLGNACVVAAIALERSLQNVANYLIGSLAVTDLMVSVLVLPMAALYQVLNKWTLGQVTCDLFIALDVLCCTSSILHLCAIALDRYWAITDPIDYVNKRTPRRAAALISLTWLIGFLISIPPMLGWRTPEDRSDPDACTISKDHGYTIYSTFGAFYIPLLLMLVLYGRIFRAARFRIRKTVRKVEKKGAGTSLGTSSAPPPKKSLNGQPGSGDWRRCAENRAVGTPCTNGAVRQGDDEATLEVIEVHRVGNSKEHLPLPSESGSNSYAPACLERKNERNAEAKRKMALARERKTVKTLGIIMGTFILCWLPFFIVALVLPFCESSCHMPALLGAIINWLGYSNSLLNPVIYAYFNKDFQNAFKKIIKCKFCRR

Cytochrome P450 2E1 = Cytochrome P450 2E1 (Homo sapiens, UniProt P05181); conditions: bti-tn-5b1-4; note: in other assays of this panel Not Active means under 50% inhibition at 10 µM
Chain of Cytochrome P450 2E1 (P05181 whole entry): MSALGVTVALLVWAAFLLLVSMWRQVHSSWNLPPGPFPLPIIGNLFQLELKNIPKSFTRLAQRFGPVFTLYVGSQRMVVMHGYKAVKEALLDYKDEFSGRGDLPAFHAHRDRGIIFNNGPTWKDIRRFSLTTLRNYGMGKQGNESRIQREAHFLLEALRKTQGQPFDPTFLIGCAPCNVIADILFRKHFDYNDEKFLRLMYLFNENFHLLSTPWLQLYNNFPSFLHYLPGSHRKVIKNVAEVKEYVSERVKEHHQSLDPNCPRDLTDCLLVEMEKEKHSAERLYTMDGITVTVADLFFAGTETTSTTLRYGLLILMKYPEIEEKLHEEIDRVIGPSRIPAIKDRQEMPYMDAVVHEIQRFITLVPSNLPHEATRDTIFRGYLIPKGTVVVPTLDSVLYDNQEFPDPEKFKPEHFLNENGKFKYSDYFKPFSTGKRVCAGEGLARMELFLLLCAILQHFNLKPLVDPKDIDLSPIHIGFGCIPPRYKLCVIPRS

Chain of 5-hydroxytryptamine receptor 2B (P41595 whole entry): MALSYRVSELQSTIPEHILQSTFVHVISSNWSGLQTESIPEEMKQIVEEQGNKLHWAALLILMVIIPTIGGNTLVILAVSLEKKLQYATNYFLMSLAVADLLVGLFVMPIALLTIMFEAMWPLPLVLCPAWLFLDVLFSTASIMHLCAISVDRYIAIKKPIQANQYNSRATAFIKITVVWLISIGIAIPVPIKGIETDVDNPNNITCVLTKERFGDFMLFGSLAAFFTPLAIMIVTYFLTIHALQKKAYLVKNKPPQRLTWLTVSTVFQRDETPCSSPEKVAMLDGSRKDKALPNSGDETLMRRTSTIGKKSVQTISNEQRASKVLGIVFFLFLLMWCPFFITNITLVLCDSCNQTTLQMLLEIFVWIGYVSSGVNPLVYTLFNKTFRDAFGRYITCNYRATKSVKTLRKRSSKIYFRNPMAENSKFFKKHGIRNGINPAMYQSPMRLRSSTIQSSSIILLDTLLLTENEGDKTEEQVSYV
Chain of D(3) dopamine receptor (P35462 whole entry): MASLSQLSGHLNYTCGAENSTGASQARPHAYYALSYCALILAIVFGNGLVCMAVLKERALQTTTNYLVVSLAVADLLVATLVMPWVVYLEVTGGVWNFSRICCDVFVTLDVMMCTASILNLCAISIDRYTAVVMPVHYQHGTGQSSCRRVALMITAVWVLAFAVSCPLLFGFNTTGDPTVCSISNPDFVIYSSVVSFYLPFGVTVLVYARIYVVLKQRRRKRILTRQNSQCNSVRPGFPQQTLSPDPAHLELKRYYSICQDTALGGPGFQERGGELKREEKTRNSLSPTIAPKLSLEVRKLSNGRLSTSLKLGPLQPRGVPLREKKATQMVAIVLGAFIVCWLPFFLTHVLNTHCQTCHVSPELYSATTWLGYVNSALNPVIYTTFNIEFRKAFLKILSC
Chain of Melanocortin receptor 3 (P41968 whole entry): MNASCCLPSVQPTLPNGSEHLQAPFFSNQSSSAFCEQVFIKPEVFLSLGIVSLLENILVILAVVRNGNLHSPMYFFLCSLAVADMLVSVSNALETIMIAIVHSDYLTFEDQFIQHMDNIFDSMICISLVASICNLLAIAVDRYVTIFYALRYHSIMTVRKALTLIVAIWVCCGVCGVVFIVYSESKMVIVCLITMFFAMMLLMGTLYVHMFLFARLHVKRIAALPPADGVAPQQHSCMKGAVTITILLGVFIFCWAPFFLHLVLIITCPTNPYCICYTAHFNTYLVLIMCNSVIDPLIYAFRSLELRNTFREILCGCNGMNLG
Chain of Prostaglandin G/H synthase 1 (P23219 whole entry): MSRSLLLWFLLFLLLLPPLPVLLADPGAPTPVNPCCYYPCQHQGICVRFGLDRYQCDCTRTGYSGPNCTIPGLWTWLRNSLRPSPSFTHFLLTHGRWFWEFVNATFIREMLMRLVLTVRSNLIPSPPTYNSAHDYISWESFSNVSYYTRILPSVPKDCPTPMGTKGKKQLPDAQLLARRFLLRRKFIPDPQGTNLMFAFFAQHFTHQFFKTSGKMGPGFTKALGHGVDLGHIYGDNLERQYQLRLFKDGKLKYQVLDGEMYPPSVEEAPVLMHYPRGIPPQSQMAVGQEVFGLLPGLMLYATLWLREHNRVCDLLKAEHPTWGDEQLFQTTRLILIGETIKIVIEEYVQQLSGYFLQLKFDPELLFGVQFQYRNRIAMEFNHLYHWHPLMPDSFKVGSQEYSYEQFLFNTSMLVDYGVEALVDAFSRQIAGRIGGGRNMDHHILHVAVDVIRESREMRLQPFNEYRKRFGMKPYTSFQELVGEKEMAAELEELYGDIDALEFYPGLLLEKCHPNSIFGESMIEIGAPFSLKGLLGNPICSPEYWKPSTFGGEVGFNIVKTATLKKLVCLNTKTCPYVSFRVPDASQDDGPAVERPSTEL
Chain of Beta-3 adrenergic receptor (P13945 whole entry): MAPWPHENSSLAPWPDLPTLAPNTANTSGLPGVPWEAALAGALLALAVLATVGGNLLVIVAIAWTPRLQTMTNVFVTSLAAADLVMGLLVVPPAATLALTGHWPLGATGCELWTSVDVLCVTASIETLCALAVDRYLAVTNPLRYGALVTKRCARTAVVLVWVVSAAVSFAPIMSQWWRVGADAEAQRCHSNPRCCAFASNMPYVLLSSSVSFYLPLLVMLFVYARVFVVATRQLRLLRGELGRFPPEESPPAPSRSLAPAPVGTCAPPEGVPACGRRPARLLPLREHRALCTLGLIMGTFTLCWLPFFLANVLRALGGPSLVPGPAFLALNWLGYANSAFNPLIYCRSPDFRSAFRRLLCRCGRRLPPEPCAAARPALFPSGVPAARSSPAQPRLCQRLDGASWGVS
Chain of Beta-1 adrenergic receptor (P08588 whole entry): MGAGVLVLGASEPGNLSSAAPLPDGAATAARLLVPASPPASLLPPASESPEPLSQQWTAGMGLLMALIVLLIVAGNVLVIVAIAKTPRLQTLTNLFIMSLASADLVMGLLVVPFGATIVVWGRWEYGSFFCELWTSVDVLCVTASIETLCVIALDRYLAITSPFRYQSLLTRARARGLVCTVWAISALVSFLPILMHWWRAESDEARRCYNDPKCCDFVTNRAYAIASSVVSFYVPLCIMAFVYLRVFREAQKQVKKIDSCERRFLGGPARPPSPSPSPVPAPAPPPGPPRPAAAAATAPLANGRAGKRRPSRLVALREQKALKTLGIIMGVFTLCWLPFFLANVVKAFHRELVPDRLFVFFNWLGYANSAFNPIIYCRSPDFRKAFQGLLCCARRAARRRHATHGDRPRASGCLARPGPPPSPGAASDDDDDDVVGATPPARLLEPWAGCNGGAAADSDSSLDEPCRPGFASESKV
Chain of C-C chemokine receptor type 2 (P41597 whole entry): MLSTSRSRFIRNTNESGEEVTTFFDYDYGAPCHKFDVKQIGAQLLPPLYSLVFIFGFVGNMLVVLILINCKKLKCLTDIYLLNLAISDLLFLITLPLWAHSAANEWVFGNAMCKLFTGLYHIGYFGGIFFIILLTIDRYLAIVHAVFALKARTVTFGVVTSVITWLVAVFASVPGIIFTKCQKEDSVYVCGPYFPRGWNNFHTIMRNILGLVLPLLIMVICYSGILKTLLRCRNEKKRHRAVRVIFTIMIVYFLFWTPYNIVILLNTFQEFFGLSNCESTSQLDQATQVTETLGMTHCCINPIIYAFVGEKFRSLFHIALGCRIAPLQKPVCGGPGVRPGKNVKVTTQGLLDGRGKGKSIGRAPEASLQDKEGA

Compound	IC50 [1]	IC50 [2]	IC50 [3]	IC50 [4]	IC50 ([5]; cho-k1)	IC50 [6]	Ki [6]	IC50 (Thromboxane-A synthase)	IC50 [7]	IC50 [8]	IC50 (D(3) dopamine receptor)	IC50 (Melanocortin receptor 3)	IC50 [9]	IC50 (Cytochrome P450 2E1)	Ki (Cytochrome P450 2E1)	Ki [1]	Ki [2]	Ki [3]	Ki [4]	Ki ([5]; cho-k1)	also measured
C=C(C)[C@@H]1[C@H]2OC(=O)[C@@H]1[C@]1(O)C[C@H]3O[C@]34C(=O)O[C@H]2[C@]14C [PICROTOXININ]	Not Active	Not Active	Not Active	Not Active	Not Active	Not Active	Not Active	Not Active	Not Active	Not Active	Not Active	Not Active	Not Active	Not Active	Not Active	–	–	–	–	–	–
CCC1(c2ccccc2)C(=O)NCNC1=O [PRIMIDONE]	Not Active	Not Active	Not Active	Not Active	Not Active	Not Active	Not Active	Not Active	Not Active	Not Active	Not Active	Not Active	Not Active	Not Active	Not Active	–	–	–	–	–	–
CCCc1cc(=O)[nH]c(=S)[nH]1 [PROPYLTHIOURACIL]	Not Active	Not Active	Not Active	Not Active	Not Active	Not Active	Not Active	Not Active	Not Active	Not Active	Not Active	Not Active	Not Active	Not Active	Not Active	–	–	–	–	–	–
COc1ccc(CN(CCN(C)C)c2ccccn2)cc1 [PYRILAMINE]	Not Active	Not Active	Not Active	Not Active	–	Not Active	Not Active	Not Active	Not Active	Not Active	Not Active	Not Active	Not Active	Not Active	Not Active	–	–	–	–	–	IC50 ([5]; read-out: IC50): 2.79 µM; Ki ([5]; read-out: Ki): 1.77 µM
CARBOPLATIN	Not Active	Not Active	Not Active	Not Active	Not Active	Not Active	Not Active	Not Active	Not Active	Not Active	Not Active	Not Active	Not Active	Not Active	Not Active	Not Active	Not Active	Not Active	Not Active	Not Active	Ki (Thromboxane-A synthase): Not Active; Ki [7]: Not Active; Ki [8]: Not Active; Ki (D(3) dopamine receptor): Not Active; Ki (Melanocortin receptor 3): Not Active; Ki [9]: Not Active
CISPLATIN	Not Active	Not Active	Not Active	Not Active	Not Active	Not Active	Not Active	–	–	Not Active	Not Active	Not Active	Not Active	Not Active	Not Active	Not Active	Not Active	Not Active	Not Active	Not Active	IC50 (Thromboxane-A synthase; read-out: IC50): 9.35 µM; IC50 ([7]; read-out: IC50): 18.1 µM; Ki ([7]; read-out: Ki): 7.01 µM; Ki [8]: Not Active; Ki (D(3) dopamine receptor): Not Active; Ki (Melanocortin receptor 3): Not Active; Ki [9]: Not Active
GOLD SODIUM THIOMALATE	Not Active	Not Active	Not Active	Not Active	Not Active	Not Active	Not Active	Not Active	Not Active	Not Active	Not Active	Not Active	Not Active	Not Active	Not Active	Not Active	Not Active	Not Active	Not Active	Not Active	Ki (Thromboxane-A synthase): Not Active; Ki [7]: Not Active; Ki [8]: Not Active; Ki (D(3) dopamine receptor): Not Active; Ki (Melanocortin receptor 3): Not Active; Ki [9]: Not Active
OXALIPLATIN	Not Active	Not Active	Not Active	Not Active	Not Active	Not Active	Not Active	Not Active	Not Active	Not Active	Not Active	Not Active	Not Active	Not Active	Not Active	Not Active	Not Active	Not Active	Not Active	Not Active	Ki (Thromboxane-A synthase): Not Active; Ki [7]: Not Active; Ki [8]: Not Active; Ki (D(3) dopamine receptor): Not Active; Ki (Melanocortin receptor 3): Not Active; Ki [9]: Not Active
